Tests used:
[1] = test system: B cell malignancy cell lines; experiment: Viability of cell lines under γ-secretase inhibition; type: cell-based; conditions: 100nM γ-secretase inhibitor, 24-48 h
Protocol: Since BCMA is known to be cleaved off by γ-secretase, it was evaluated whether inhibition of this enzyme would lead to enhanced BCMA levels on these B cell lines. To assess this, the different B cell malignancy lines were incubated for 24-48 h with 100nM γ-secretase inhibitor (Ly411575) and BCMA fold increase was compared to unstimulated cells. Viability of the different cell lines was not affected by γ-secretase inhibition (FIG. 7A). […] Besides the cell lines which already had high basal levels of BCMA (U266, RPMI-8226, MWCL1 and BCWM.1) also cell lines which had low basal expression of BCMA, such as JeKo-1 and OCI-Ly7 were able to upregulate BCMA after γ-secretase inhibition (FIG. 1B). […] This was studied by determination of soluble BCMA (sBCMA) levels in supernatants of B cell malignancy cell lines, which were cultured for 24 or 48h in the absence or presence of γ-secretase inhibitor. Indeed, sBCMA levels were detectable upon culture of different selected cell lines (except for Jurkat), and increased upon longer culture times (FIG. 1C).

[2] = test system: B cell malignancy cell lines; experiment: Soluble BCMA ELISA in supernatants of cell lines; type: cell-based; conditions: 100 nM, 24 or 48h, both time points
Protocol: (§1) To evaluate whether other malignancies besides multiple myeloma (MM) can potentially be targeted by BCMA directed immunotherapy, B cell malignancy cell lines were assessed for BCMA expression by flow cytometry. […] Per FIG. 1A, B cell malignancy cell lines were cultured and basal levels of BCMA were assessed by flow cytometry and compared to isotype controls. (n=3-8). Dotted line indicates no increase compared to isotype control. In accordance with FIG. 1B, cell lines were treated for 24-48h with 100nM γ-secretase inhibitor or with medium control and BCMA was assessed by flow cytometry. Values are represented as fold increase compared to 0 nM γ-secretase inhibitor. (n=3-12) Dotted line indicates no increase compared to 0 nM γ-secretase inhibitor. FIG. 1C represents the results of an asssessment of soluble BCMA by ELISA in supernatants of B cell malignancy cell lines after treatment with 0 nM or 100 nM γ-secretase inhibitor for 24-48 h. (n=2). […] The P value was calculated by paired t test of Wilcoxon test (FIG. 1A-1B) or simple linear regression (FIG. 1E). […]
(§2) Since BCMA is known to be cleaved off by γ-secretase, it was evaluated whether inhibition of this enzyme would lead to enhanced BCMA levels on these B cell lines. […]
sBCMA ELISA. […] After 24 or 48 h supernatants were harvested and stored at −20° C. soluble BCMA (sBCMA) in supernatants were measured by ELISA using antibody pairs for BCMA.

[3] = test system: Jurkat cells; experiment: BCMA membrane level by flow cytometry after γ-secretase inhibition, Jurkat; type: cell-based; conditions: 100nM, 24-48 h
Protocol: as §1, §2
(§3) Flow cytometry. […] After antibody staining, samples were washed using PBA and acquired on BD FACS Canto or LSR Fortessa flow cytometer and analysed with FlowJo v10. […]

[4] = test system: B cell malignancy cell lines; experiment: BCMA membrane level by flow cytometry after γ-secretase inhibition; type: cell-based; conditions: 100nM, 24-48 h, all B cell malignancy cell lines
Protocol: as §1, §2, §3

[5] = test system: primary CLL cells; experiment: Viability of CLL cells under γ-secretase inhibition; type: cell-based, human; conditions: 100 nM γ-secretase inhibitor
Protocol: Viability of CLL cells was not affected by the inhibitor (FIG. 8A). No difference in BCMA levels, before or after γ-secretase inhibitor treatment, was observed between CLL samples with mutated and unmutated immunoglobulin heavy chain variable region gene (IgHV) status (FIG. 2C-D). Low but measurable mRNA levels of BCMA expression could be detected on CLL cells (FIG. 2E). Despite low BCMA detection by flow cytometry, sBCMA could be detected in supernatants of CLL cells, already after 24 h of culturing, which increased after 48 h (FIG. 2F).

C[C@H](NC(=O)[C@@H](O)c1cc(F)cc(F)c1)C(=O)N[C@@H]1C(=O)N(C)c2ccccc2-c2ccccc21 [Ly411575]
Viability of the different cell lines [1]: not affected | soluble BCMA (sBCMA) levels in supernatants [2]: strongly reduced | BCMA level after γ-secretase inhibition [3]: no upregulation of BCMA | BCMA level after γ-secretase inhibition compared to unstimulated cells [4]: increased BCMA level | Viability of CLL cells [5]: not affected

— patent publication US20220411525A1, “BCMA AS A TARGET FOR T CELL REDIRECTING ANTIBODIES IN B CELL LYMPHOMAS” (Janssen Pharmaceutica NV, priority 2021, published 2022)
